Measured values published in ChEMBL document CHEMBL1145390, “Synthesis and preliminary biological characterization of new semisynthetic derivatives of ramoplanin” (J Med Chem, 2007).
Values after ≈ are worked out from the molar mass of the structure shown.

Columns and labels:
Staphylococcus aureus [1] = assay: Antibacterial activity against methicillin-resistant and vancomycin-intermediate resistant Staphylococcus aureus clinical isolate after 24 hrs by broth microdilution method; type: functional
Enterococcus faecium [2] = assay: Antibacterial activity against vancomycin A-resistant Enterococcus faecium clinical isolate after 24 hrs by broth microdilution method; type: functional; conditions: read-out: MIC
[3] = Toxicity assessed as hemolysis in erythrocytes at 90 mg/L; type: cell-based, Erythrocyte; conditions: human; for hemolysis at 90 mg/L: erythrocytes, read-out: Activity; for Activity: erythrocyte
[4] = Toxicity assessed as hemolysis in erythrocytes at 180 mg/L; type: cell-based, Erythrocyte; conditions: human; for hemolysis at 180 mg/L: erythrocytes, read-out: Activity; for Activity: erythrocyte
Escherichia coli = assay: Antibacterial activity against Escherichia coli SKF-12140 after 24 hrs by broth microdilution method; type: functional
Streptococcus pyogenes = assay: Antibacterial activity against Streptococcus pyogenes C203 after 24 hrs by broth microdilution method; type: functional; conditions: C203, 24 h
Staphylococcus aureus [5] = assay: Antibacterial activity against methicillin-resistant Staphylococcus aureus clinical isolate after 24 hrs by broth microdilution method; type: functional; conditions: read-out: MIC
Candida albicans = assay: Antifungal activity against Candida albicans SKF-2270 after 24 hrs by broth microdilution method; type: functional
Staphylococcus aureus [6] = assay: Antibacterial activity against vancomycin-intermediate resistant Staphylococcus aureus clinical isolate after 24 hrs by broth microdilution method; type: functional
Enterococcus faecium [7] = assay: Antibacterial activity against Enterococcus faecium after 24 hrs by broth microdilution method; type: functional; conditions: read-out: MIC
Staphylococcus aureus [8] = assay: Antibacterial activity against Staphylococcus aureus Smith after 24 hrs by broth microdilution method; type: functional; conditions: read-out: MIC
Enterococcus faecalis [9] = assay: Antibacterial activity against vancomycin A-resistant Enterococcus faecalis after 24 hrs by broth microdilution method; type: functional; conditions: read-out: MIC
Enterococcus faecalis [10] = assay: Antibacterial activity against Enterococcus faecalis after 24 hrs by broth microdilution method; type: functional; conditions: read-out: MIC

Row | Structure (SMILES) | MIC (Staphylococcus aureus [1]; read-out: MIC) | MIC (Enterococcus faecium [2]) | hemolysis at 90 mg/L [3] | hemolysis at 180 mg/L [4] | MIC (Escherichia coli; read-out: MIC) | MIC (Streptococcus pyogenes; read-out: MIC) | MIC (Staphylococcus aureus [5]) | MIC (Candida albicans; read-out: MIC) | MIC (Staphylococcus aureus [6]) | MIC (Enterococcus faecium [7]) | MIC (Staphylococcus aureus [8]) | MIC (Enterococcus faecalis [9]) | MIC (Enterococcus faecalis [10]) | MIC (Staphylococcus aureus [1]) | Activity [3] | Activity [4] | MIC (Escherichia coli) | MIC (Streptococcus pyogenes) | MIC (Candida albicans)
1 | CC(C)C[C@@H]1NC(=O)CNC(=O)[C@H](c2ccc(O)cc2)NC(=O)[C@@H]([C@@H](C)O)NC(=O)[C@H](c2ccc(O[C@H]3O[C@H](CO)[C@@H](O)[C@H](O)[C@@H]3O[C@H]3O[C@H](CO)[C@@H](O)[C@H](O)[C@@H]3O)cc2)NC(=O)[C@@H](CCCN)NC(=O)[C@H](Cc2ccccc2)NC(=O)[C@H]([C@@H](C)O)NC(=O)[C@@H](c2ccc(O)cc2)NC(=O)[C@H](c2ccc(O)cc2)NC(=O)[C@@H](C(C)C)NC(=O)[C@@H](CCCN)NC(=O)[C@@H](c2ccc(O)cc2)NC(=O)[C@@H](CNC(=O)[C@H](CC(N)=O)NC(=O)Cc2ccc(Cl)cc2)[C@@H](C(N)=O)OC(=O)[C@H](c2ccc(O)c(Cl)c2)NC(=O)[C@@H](C)NC1=O | 4 µg/mL (≈ 1.55 µM) | 1 µg/mL (≈ 0.387 µM) | 0% | 0% | > 32 µg/mL | ≤ 0.03 µg/mL | 0.5 µg/mL (≈ 0.194 µM) | > 32 µg/mL | 2 µg/mL (≈ 0.774 µM) | 1 µg/mL (≈ 0.387 µM) | 0.5 µg/mL (≈ 0.194 µM) | 0.5 µg/mL (≈ 0.194 µM) | 0.5 µg/mL (≈ 0.194 µM) | – | – | – | – | – | –
2 | CC(C)C[C@@H]1NC(=O)CNC(=O)[C@H](c2ccc(O)cc2)NC(=O)[C@@H]([C@@H](C)O)NC(=O)[C@H](c2ccc(O[C@H]3O[C@H](CO)[C@@H](O)[C@H](O)[C@@H]3O[C@H]3O[C@H](CO)[C@@H](O)[C@H](O)[C@@H]3O)cc2)NC(=O)[C@@H](CCCN)NC(=O)[C@H](Cc2ccccc2)NC(=O)[C@H]([C@@H](C)O)NC(=O)[C@@H](c2ccc(O)cc2)NC(=O)[C@H](c2ccc(O)cc2)NC(=O)[C@@H](C(C)C)NC(=O)[C@@H](CCCN)NC(=O)[C@@H](c2ccc(O)cc2)NC(=O)[C@@H](CNC(=O)[C@H](CC(N)=O)NC(=O)Cc2ccc3ccccc3c2)[C@@H](C(N)=O)OC(=O)[C@H](c2ccc(O)c(Cl)c2)NC(=O)[C@@H](C)NC1=O.Cl | 1 µg/mL | 0.25 µg/mL | 24% | 59% | > 32 µg/mL | ≤ 0.03 µg/mL | 0.25 µg/mL | > 32 µg/mL | 1 µg/mL | 0.25 µg/mL | 0.25 µg/mL | 0.125 µg/mL | 0.125 µg/mL | – | – | – | – | – | –
3 | CC(C)C[C@@H]1NC(=O)CNC(=O)[C@H](c2ccc(O)cc2)NC(=O)[C@@H]([C@@H](C)O)NC(=O)[C@H](c2ccc(O[C@H]3O[C@H](CO)[C@@H](O)[C@H](O)[C@@H]3O[C@H]3O[C@H](CO)[C@@H](O)[C@H](O)[C@@H]3O)cc2)NC(=O)[C@@H](CCCN)NC(=O)[C@H](Cc2ccccc2)NC(=O)[C@H]([C@@H](C)O)NC(=O)[C@@H](c2ccc(O)cc2)NC(=O)[C@H](c2ccc(O)cc2)NC(=O)[C@@H](C(C)C)NC(=O)[C@@H](CCCN)NC(=O)[C@@H](c2ccc(O)cc2)NC(=O)[C@@H](CNC(=O)[C@H](CC(N)=O)NC(=O)Cc2ccccc2)[C@@H](C(N)=O)OC(=O)[C@H](c2ccc(O)c(Cl)c2)NC(=O)[C@@H](C)NC1=O | – | 0.004 µg/mL (≈ 0.00157 µM) | – | – | – | – | 0.002 µg/mL (≈ 0.000785 µM) | – | 0.008 µg/mL (≈ 0.00314 µM) | 0.008 µg/mL (≈ 0.00314 µM) | 0.002 µg/mL (≈ 0.000785 µM) | 0.004 µg/mL (≈ 0.00157 µM) | 0.004 µg/mL (≈ 0.00157 µM) | 16 µg/mL (≈ 6.28 µM) | 0% | 0% | > 32 µg/mL | 0.06 µg/mL (≈ 0.0235 µM) | > 32 µg/mL
4 | CCCCCOc1ccc(C(=O)N[C@@H](CC(N)=O)C(=O)NC[C@@H]2C(=O)N[C@H](c3ccc(O)cc3)C(=O)N[C@H](CCCN)C(=O)N[C@H](C(C)C)C(=O)N[C@@H](c3ccc(O)cc3)C(=O)N[C@H](c3ccc(O)cc3)C(=O)N[C@@H]([C@@H](C)O)C(=O)N[C@@H](Cc3ccccc3)C(=O)N[C@H](CCCN)C(=O)N[C@@H](c3ccc(O[C@H]4O[C@H](CO)[C@@H](O)[C@H](O)[C@@H]4O[C@H]4O[C@H](CO)[C@@H](O)[C@H](O)[C@@H]4O)cc3)C(=O)N[C@H]([C@@H](C)O)C(=O)N[C@@H](c3ccc(O)cc3)C(=O)NCC(=O)N[C@@H](CC(C)C)C(=O)N[C@H](C)C(=O)N[C@@H](c3ccc(O)c(Cl)c3)C(=O)O[C@@H]2C(N)=O)cc1 | 8 µg/mL (≈ 3.05 µM) | 0.25 µg/mL (≈ 0.0954 µM) | 8% | 10% | > 32 µg/mL | 0.25 µg/mL (≈ 0.0954 µM) | 2 µg/mL (≈ 0.763 µM) | > 32 µg/mL | 4 µg/mL (≈ 1.53 µM) | 0.25 µg/mL (≈ 0.0954 µM) | 8 µg/mL (≈ 3.05 µM) | 0.25 µg/mL (≈ 0.0954 µM) | 0.25 µg/mL (≈ 0.0954 µM) | – | – | – | – | – | –
5 | CC(C)C[C@@H]1NC(=O)CNC(=O)[C@H](c2ccc(O)cc2)NC(=O)[C@@H]([C@@H](C)O)NC(=O)[C@H](c2ccc(O[C@H]3O[C@H](CO)[C@@H](O)[C@H](O)[C@@H]3O[C@H]3O[C@H](CO)[C@@H](O)[C@H](O)[C@@H]3O)cc2)NC(=O)[C@@H](CCCN)NC(=O)[C@H](Cc2ccccc2)NC(=O)[C@H]([C@@H](C)O)NC(=O)[C@@H](c2ccc(O)cc2)NC(=O)[C@H](c2ccc(O)cc2)NC(=O)[C@@H](C(C)C)NC(=O)[C@@H](CCCN)NC(=O)[C@@H](c2ccc(O)cc2)NC(=O)[C@@H](CNC(=O)[C@H](CC(N)=O)NC(=O)c2cccc3ccccc23)[C@@H](C(N)=O)OC(=O)[C@H](c2ccc(O)c(Cl)c2)NC(=O)[C@@H](C)NC1=O | 8 µg/mL (≈ 3.1 µM) | 1 µg/mL (≈ 0.387 µM) | 14% | 25% | > 32 µg/mL | ≤ 0.03 µg/mL | 2 µg/mL (≈ 0.774 µM) | > 32 µg/mL | 8 µg/mL (≈ 3.1 µM) | 1 µg/mL (≈ 0.387 µM) | 1 µg/mL (≈ 0.387 µM) | 0.5 µg/mL (≈ 0.193 µM) | 0.5 µg/mL (≈ 0.193 µM) | – | – | – | – | – | –
6 | CC(C)C[C@@H]1NC(=O)CNC(=O)[C@H](c2ccc(O)cc2)NC(=O)[C@@H]([C@@H](C)O)NC(=O)[C@H](c2ccc(O[C@H]3O[C@H](CO)[C@@H](O)[C@H](O)[C@@H]3O[C@H]3O[C@H](CO)[C@@H](O)[C@H](O)[C@@H]3O)cc2)NC(=O)[C@@H](CCCN)NC(=O)[C@H](Cc2ccccc2)NC(=O)[C@H]([C@@H](C)O)NC(=O)[C@@H](c2ccc(O)cc2)NC(=O)[C@H](c2ccc(O)cc2)NC(=O)[C@@H](C(C)C)NC(=O)[C@@H](CCCN)NC(=O)[C@@H](c2ccc(O)cc2)NC(=O)[C@@H](CNC(=O)[C@H](CC(N)=O)NC(=O)c2ccc(C#N)cc2)[C@@H](C(N)=O)OC(=O)[C@H](c2ccc(O)c(Cl)c2)NC(=O)[C@@H](C)NC1=O | 32 µg/mL (≈ 12.5 µM) | 4 µg/mL (≈ 1.56 µM) | 2% | 3% | > 32 µg/mL | 0.06 µg/mL (≈ 0.0234 µM) | 4 µg/mL (≈ 1.56 µM) | > 32 µg/mL | 32 µg/mL (≈ 12.5 µM) | 8 µg/mL (≈ 3.13 µM) | 8 µg/mL (≈ 3.13 µM) | 8 µg/mL (≈ 3.13 µM) | 4 µg/mL (≈ 1.56 µM) | – | – | – | – | – | –
7 | Cc1ccc(CC(=O)N[C@@H](CC(N)=O)C(=O)NC[C@@H]2C(=O)N[C@H](c3ccc(O)cc3)C(=O)N[C@H](CCCN)C(=O)N[C@H](C(C)C)C(=O)N[C@@H](c3ccc(O)cc3)C(=O)N[C@H](c3ccc(O)cc3)C(=O)N[C@@H]([C@@H](C)O)C(=O)N[C@@H](Cc3ccccc3)C(=O)N[C@H](CCCN)C(=O)N[C@@H](c3ccc(O[C@H]4O[C@H](CO)[C@@H](O)[C@H](O)[C@@H]4O[C@H]4O[C@H](CO)[C@@H](O)[C@H](O)[C@@H]4O)cc3)C(=O)N[C@H]([C@@H](C)O)C(=O)N[C@@H](c3ccc(O)cc3)C(=O)NCC(=O)N[C@@H](CC(C)C)C(=O)N[C@H](C)C(=O)N[C@@H](c3ccc(O)c(Cl)c3)C(=O)O[C@@H]2C(N)=O)cc1 | – | 0.002 µg/mL (≈ 0.000781 µM) | – | – | – | – | 0.002 µg/mL (≈ 0.000781 µM) | – | 0.008 µg/mL (≈ 0.00312 µM) | 0.004 µg/mL (≈ 0.00156 µM) | 0.001 µg/mL (≈ 0.00039 µM) | 0.002 µg/mL (≈ 0.000781 µM) | 0.002 µg/mL (≈ 0.000781 µM) | 8 µg/mL (≈ 3.12 µM) | 0% | 0% | > 32 µg/mL | 0.06 µg/mL (≈ 0.0234 µM) | > 32 µg/mL
